Measured values from patent US20100184596A1, “METHOD FOR THE CONTROL OF WEEDS IN TURF” (SYNGENTA CROP PROTECTION, INC., priority 2007, published 2010).

Experiments:
Assay type in all cases: in vivo
[1] = test system: Hydrocotyle sp. (dollarweed); assay: Example B7, conclusion in words
Procedure: The weed control efficacy of the compound of formula I in combination with various safeners was tested. The combinations were applied by post emergence spray application. Percentage weed control assessments were taken at various timepoints.

[2] = test system: Trifolium repens (clover); assay: Weed control via post emergence spray, in bluegrass/fescue mix (Table B5.6)
Procedure: The weed control efficacy of the compound of formula I was tested. The compound was applied via post emergence spray to a range of weeds, at various rates and spray treatment treatment regimes. Percentage weed control assessments were taken at various timepoints.

Bermudagrass = assay: Phytotoxicity via post emergence spray application (Table B2.5)
Procedure: The phytotoxicity of the compound of formula I to turfgrass species was tested. The compound was applied via post emergence spray to a range of warm and cool season turfgrass species at various rates and spray treatment treatment regimes. Percentage phytotoxicity assessments were taken at various timepoints.

[3] = test system: Perennial ryegrass v. blend of Bright Star, Citation Fore and Quick Trans; assay: Phytotoxicity via granule application, various inert granules (Table B3.4); conditions: 8 DAT
Procedure: The phytotoxicity of the compound of formula I to turfgrass species was tested. The compound was applied by distribution of granule formulations of formula I, post emergence, to turfgrass species at two rates. All treatments were watered-in 1 day after application. Percentage phytotoxicity assessments were taken at various timepoints.
In Tables B3.3 and B3.4, the granular formulations tested were made by spraying the compound of formula I onto various inert granules. In each of these trials, the granule formulations were tested at a higher rate than the corresponding spray application

Tall fescue v. Coronado = assay: Phytotoxicity of granule formulations with safeners (Table B4.4); conditions: 8 DAT
Procedure: (§1) The phytotoxicity to turfgrass of the compound of formula I in combination with various safeners was tested. The combinations were applied by post emergence spray application. Percentage phytotoxicity assessments were taken at various timepoints. The safeners tested in these trials were cloquintocet-mexyl, cyprosulfamide, a compound of formula 2.3, and isoxadifen-ethyl.
Tables B4.4 and B4.5 present the results of trials using safeners applied in combination with granule formulations of the compound of formula I.

[4] = test system: St. Augustinegrass v. Floratam; assay: Phytotoxicity in combination with safeners, post emergence spray (Table B4.2); conditions: no safener, 100 g ai/ha
Procedure: as §1

Structure (SMILES): COCCOCc1nc(C(F)(F)F)ccc1C(=O)C1=C(O)C2CCC(C2)C1=O (stereo not drawn) [Formula I, 4-Hydroxy-3-[2-(2-methoxyethoxymethyl)-6-trifluoromethylpyridine-3-carbonyl]-bicyclo[3.2.1]oct-3-en-2-one]
- herbicidal efficacy in presence of a safener, in words [1]: does not significantly effect the herbicidal efficacy
- % control ([2]; 10 g ai/ha, 7 DAT): 0.00%
- % control ([2]; 10 g ai/ha, 14 DAT): 21.25%
- % control ([2]; 10 g ai/ha, 22 DAT): 23.75%
- % control ([2]; 10 g ai/ha, 29 DAT): 8.75%
- % control ([2]; 10 g ai/ha, 46 DAT): 10.00%
- % control ([2]; 20 g ai/ha, 7 DAT): 0.00%
- % control ([2]; 20 g ai/ha, 14 DAT): 22.50%
- % control ([2]; 20 g ai/ha, 22 DAT): 28.75%
- % control ([2]; 20 g ai/ha, 29 DAT): 22.50%
- % control ([2]; 20 g ai/ha, 46 DAT): 28.75%
- % control ([2]; 40 g ai/ha, 7 DAT): 11.25%
- % control ([2]; 40 g ai/ha, 14 DAT): 21.25%
- % control ([2]; 40 g ai/ha, 22 DAT): 22.50%
- % control ([2]; 40 g ai/ha, 29 DAT): 35.00%
- % control ([2]; 40 g ai/ha, 46 DAT): 47.50%
- % control ([2]; 80 g ai/ha, 7 DAT): 17.50%
- % control ([2]; 80 g ai/ha, 14 DAT): 22.50%
- % control ([2]; 80 g ai/ha, 22 DAT): 30.00%
- % control ([2]; 80 g ai/ha, 29 DAT): 52.50%
- % control ([2]; 80 g ai/ha, 46 DAT): 81.25%
- % control ([2]; 160 g ai/ha, 7 DAT): 22.50%
- % control ([2]; 160 g ai/ha, 14 DAT): 27.50%
- % control ([2]; 160 g ai/ha, 22 DAT): 41.25%
- % control ([2]; 160 g ai/ha, 29 DAT): 76.25%
- % control ([2]; 160 g ai/ha, 46 DAT): 91.25%
- % phytotoxicity (Bermudagrass; 1 appl, 140 g ai/ha, 7 DAT): 38.75%
- % phytotoxicity (Bermudagrass; 1 appl, 140 g ai/ha, 14 DAT): 18.75%
- % phytotoxicity (Bermudagrass; 1 appl, 140 g ai/ha, 21 DAT): 15.00%
- % phytotoxicity (Bermudagrass; 1 appl, 140 g ai/ha, 32 DAT): 13.75%
- % phytotoxicity (Bermudagrass; 1 appl, 140 g ai/ha, 35 DAT): 13.75%
- % phytotoxicity (Bermudagrass; 1 appl, 140 g ai/ha, 42 DAT): 7.50%
- % phytotoxicity (Bermudagrass; 1 appl, 140 g ai/ha, 49 DAT): 6.25%
- % phytotoxicity (Bermudagrass; 1 appl, 280 g ai/ha, 7 DAT): 38.75%
- % phytotoxicity (Bermudagrass; 1 appl, 280 g ai/ha, 14 DAT): 28.75%
- % phytotoxicity (Bermudagrass; 1 appl, 280 g ai/ha, 21 DAT): 12.50%
- % phytotoxicity (Bermudagrass; 1 appl, 280 g ai/ha, 32 DAT): 15.00%
- % phytotoxicity (Bermudagrass; 1 appl, 280 g ai/ha, 35 DAT): 15.00%
- % phytotoxicity (Bermudagrass; 1 appl, 280 g ai/ha, 42 DAT): 8.75%
- % phytotoxicity (Bermudagrass; 1 appl, 280 g ai/ha, 49 DAT): 6.25%
- % phytotoxicity (Bermudagrass; 2 appl, 140 g ai/ha, 7 DAT): 30.00%
- % phytotoxicity (Bermudagrass; 2 appl, 140 g ai/ha, 14 DAT): 26.25%
- % phytotoxicity (Bermudagrass; 2 appl, 140 g ai/ha, 21 DAT): 15.00%
- % phytotoxicity (Bermudagrass; 2 appl, 140 g ai/ha, 32 DAT): 68.75%
- % phytotoxicity (Bermudagrass; 2 appl, 140 g ai/ha, 35 DAT): 35.00%
- % phytotoxicity (Bermudagrass; 2 appl, 140 g ai/ha, 42 DAT): 15.00%
- % phytotoxicity (Bermudagrass; 2 appl, 140 g ai/ha, 49 DAT): 28.75%
- % phytotoxicity (Bermudagrass; 2 appl, 280 g ai/ha, 7 DAT): 42.50%
- % phytotoxicity (Bermudagrass; 2 appl, 280 g ai/ha, 14 DAT): 36.25%
- % phytotoxicity (Bermudagrass; 2 appl, 280 g ai/ha, 21 DAT): 18.75%
- % phytotoxicity (Bermudagrass; 2 appl, 280 g ai/ha, 32 DAT): 75.00%
- % phytotoxicity (Bermudagrass; 2 appl, 280 g ai/ha, 35 DAT): 65.00%
- % phytotoxicity (Bermudagrass; 2 appl, 280 g ai/ha, 42 DAT): 26.25%
- % phytotoxicity (Bermudagrass; 2 appl, 280 g ai/ha, 49 DAT): 30.00%
- % phytotoxicity ([3]; Agsorb LUM GA granule, 520 g ai/ha): 20.0%
- % phytotoxicity ([3]; Agsorb LUM MS granule, 520 g ai/ha): 5.8%
- % phytotoxicity ([3]; Agsorb RUM GA granule, 520 g ai/ha): 18.8%
- % phytotoxicity ([3]; Bio Dac granule, 520 g ai/ha): 13.3%
- % phytotoxicity ([3]; DG Lite granule, 520 g ai/ha): 18.8%
- % phytotoxicity ([3]; Eco Gran granule, 520 g ai/ha): 18.8%
- % phytotoxicity ([3]; Non dispersing extruded granules, 520 g ai/ha): 18.8%
- % phytotoxicity ([3]; Oil dry, 520 g ai/ha): 6.3%
- % phytotoxicity ([3]; Spray, 260 g ai/ha): 31.3%
- % phytotoxicity (Tall fescue v. Coronado; DG Lite granule, no safener, 680 g ai/ha): 20.0%
- % phytotoxicity (Tall fescue v. Coronado; DG Lite granule, safener Cyprosulfamide (0.07%), 680 g ai/ha): 22.5%
- % phytotoxicity (Tall fescue v. Coronado; DG Lite granule, safener Formula 2.3 (0.07%), 680 g ai/ha): 16.3%
- % phytotoxicity (Tall fescue v. Coronado; DG Lite granule, safener Isoxadifen (0.07%), 680 g ai/ha): 21.3%
- % phytotoxicity (Tall fescue v. Coronado; Spray, no safener, 340 g ai/ha): 18.8%
- % phytotoxicity ([4]; 9 DAT): 46.70%
- % phytotoxicity ([4]; 13 DAT): 50.00%
- % phytotoxicity ([4]; 19 DAT): 11.70%
- % phytotoxicity ([4]; 25 DAT): 5.00%
